PubChem BioAssay AID1117355 (Cheminformatics & Chemogenomics Research Group (CCRG), …, 2015)
Active and inactive are the calls of the source. No rule for the calls is given here.

Molecular target: Glycogen synthase kinase-3 beta (Homo sapiens) (UniProt P49841)
Assay: NPC library primary assay, GSK-3β enzyme inhibitors, biochemical, Homo sapiens, LANCE Ultra TR-FRET detection (AID 1117355)
Settings: LANCE Ultra TR-FRET kinase activity; at 20 µM (top of the series)

Sequence of Glycogen synthase kinase-3 beta (Homo sapiens) (P49841 whole entry, looked up): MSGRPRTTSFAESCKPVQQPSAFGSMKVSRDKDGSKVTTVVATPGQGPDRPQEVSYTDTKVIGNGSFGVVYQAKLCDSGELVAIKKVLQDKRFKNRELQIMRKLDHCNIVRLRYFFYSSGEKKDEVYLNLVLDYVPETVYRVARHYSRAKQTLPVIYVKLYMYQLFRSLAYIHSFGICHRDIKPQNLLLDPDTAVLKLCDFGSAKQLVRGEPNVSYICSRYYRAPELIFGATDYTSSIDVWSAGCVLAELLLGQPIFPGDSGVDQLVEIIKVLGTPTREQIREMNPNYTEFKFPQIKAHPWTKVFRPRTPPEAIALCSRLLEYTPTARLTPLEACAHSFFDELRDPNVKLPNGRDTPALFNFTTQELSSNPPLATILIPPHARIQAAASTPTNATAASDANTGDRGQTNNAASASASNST

Structure (SMILES) | inhibition
COc1ccc2cc1Oc1ccc(cc1)C[C@H]1c3c(cc4c(c3Oc3cc5c(cc3OC)CCN(C)[C@@H]5C2)OCO4)CCN1C | 2.24% (inactive)
O=C(CCCCCCC(=O)Nc1ccccc1)NO | -28.8% (inactive)
Cc1nc2ccc(CN(C)c3ccc(C(=O)N[C@@H](CCC(=O)O)C(=O)O)s3)cc2c(=O)[nH]1 | 81.3%
Cc1cc(C2CCCCC2)n(O)c(=O)c1 | 0.84% (inactive)
C[C@@]12C(=O)OC(=O)[C@]1(C)C1CCC2O1 | 2.16% (inactive)
CC(C)(C)C(=O)OCOP(=O)(COCCn1cnc2c(N)ncnc21)OCOC(=O)C(C)(C)C | 7.97% (inactive)
Nc1ccc2cc3ccc(N)cc3nc2c1 | -57.5% (inactive)
CC(C)(C)C1CCC(CC2=C(O)c3ccccc3C(=O)C2=O)CC1 (stereo not given) | 10.2% (inactive)
Cc1cc(C)c(/C=C2\C(=O)Nc3ccccc32)[nH]1 | -34.3% (inactive)
NC(=NCCCCCCN=C(N)/N=C(\N)Nc1ccc(Cl)cc1)/N=C(\N)Nc1ccc(Cl)cc1 | 0.77% (inactive)
O=c1[nH]c(=O)n([C@H]2C[C@H](O)[C@@H](CO)O2)cc1C(F)(F)F | 17.2% (inactive)
CCN(CC)CCOc1ccc(/C(=C(\Cl)c2ccccc2)c2ccccc2)cc1 | -11.9% (inactive)
CNC(=O)c1cc(Oc2ccc(NC(=O)Nc3ccc(Cl)c(C(F)(F)F)c3)cc2)ccn1 | 47.6% (inactive)
CC[C@]1(O)C[C@@H]2CN(CCc3c([nH]c4ccccc34)[C@@](C(=O)OC)(c3cc4c(cc3OC)N(C)[C@H]3[C@@](O)(C(=O)OC)[C@H](OC(C)=O)[C@]5(CC)C=CCN6CC[C@]43[C@@H]65)C2)C1 | -4.66% (inactive)
COc1cc([C@@H]2c3cc4c(cc3[C@H](O)[C@H]3COC(=O)[C@H]23)OCO4)cc(OC)c1OC | 26.6% (inactive)
Cc1ccc([N+](=O)[O-])[c]2c1[O][Hg]2 | 66.1%
Cc1nc(Nc2ncc(C(=O)Nc3c(C)cccc3Cl)s2)cc(N2CCN(CCO)CC2)n1 | 38.8% (inactive)
O=C(Nc1ccc([N+](=O)[O-])cc1Cl)c1cc(Cl)ccc1O | -11.3% (inactive)
Oc1c(Cl)cc(Cl)c2cccnc12 | -26.5% (inactive)
COc1cccc2c1C(=O)c1c(O)c3c(c(O)c1C2=O)C[C@@](O)(C(C)=O)C[C@@H]3O[C@H]1C[C@H](N)[C@H](O)[C@H](C)O1 | 7.12% (inactive)
CC(C)C[C@H](NC(=O)[C@H](CCc1ccccc1)NC(=O)CN1CCOCC1)C(=O)N[C@@H](Cc1ccccc1)C(=O)N[C@@H](CC(C)C)C(=O)[C@@]1(C)CO1 | 20.4% (inactive)
Cn1cnc([N+](=O)[O-])c1Sc1ncnc2nc[nH]c12 | -18.2% (inactive)
Cc1ccccc1C(=O)Nc1ccc(C(=O)N2CCCC(N(C)C)c3ccccc32)cc1 (stereo not given) | 18.2% (inactive)
CCCSc1ccc2nc(NC(=O)OC)[nH]c2c1 | -11.3% (inactive)
COC(=O)c1nc(Cl)c(Cl)nc1N | 20.8% (inactive)

Other lines, results leading:

inhibition | Structure (SMILES)
42.2% (inactive) | COC(=O)Nc1nc2ccc(C(=O)c3cccs3)cc2[nH]1
-35.9% (inactive) | Cc1ccc2nc(N)[nH]c(=O)c2c1Sc1ccncc1
5.63% (inactive) | CC(=O)[C@]1(O)Cc2c(O)c3c(c(O)c2[C@@H](O[C@H]2C[C@H](N)[C@H](O)[C@H](C)O2)C1)C(=O)c1ccccc1C3=O
-1.14% (inactive) | Cc1nc(N)nc(N)c1-c1ccc(Cl)c(Cl)c1
0.27% (inactive) | CCCN(CCC)C(=O)C(CCC(=O)OCCCN1CCN(CCOC(=O)Cc2c(C)n(C(=O)c3ccc(Cl)cc3)c3ccc(OC)cc23)CC1)NC(=O)c1ccccc1 (stereo not given)
11.3% (inactive) | COc1c(C)c2c(c(O)c1C/C=C(\C)CCC(=O)OCCN1CCOCC1)C(=O)OC2
-7.61% (inactive) | CCCCCCNC(=O)n1cc(F)c(=O)[nH]c1=O
-210% (inactive) | CN(C)c1ccc2nc3ccc(=[N+](C)C)cc-3sc2c1
99.9% | CN1CC[C@H](c2c(O)cc(O)c3c(=O)cc(-c4ccccc4Cl)oc23)[C@H](O)C1
-5.09% (inactive) | CCCOc1ccc2nc(NC(=O)OC)[nH]c2c1
-21.5% (inactive) | CCCCCCCCCCCCCCCC[n+]1ccccc1
37.5% (inactive) | O=C(O)c1ccc(-n2nc(-c3ccccc3O)nc2-c2ccccc2O)cc1
81.3% | Oc1c(Cl)cc(Cl)cc1Sc1cc(Cl)cc(Cl)c1O
-24.7% (inactive) | C[n+]1c2cc(N)ccc2cc2ccc(N)cc21 (tested in a mixture with another compound)
-30.7% (inactive) | Nc1nc(=S)c2[nH]cnc2[nH]1
